Format in all cases: cell-based
The target in one data set is T1, FXR (Homo sapiens, UniProt Q96RI1).
T1 construct: HepG2 cells were stably transfected with either FXR reporter DNA; endogenous in cells; host or cells: HepG2 cells stably transfected with a 3x FXR response element PGL4.2 luciferase reporter
T1 sequence (Q96RI1 1-486): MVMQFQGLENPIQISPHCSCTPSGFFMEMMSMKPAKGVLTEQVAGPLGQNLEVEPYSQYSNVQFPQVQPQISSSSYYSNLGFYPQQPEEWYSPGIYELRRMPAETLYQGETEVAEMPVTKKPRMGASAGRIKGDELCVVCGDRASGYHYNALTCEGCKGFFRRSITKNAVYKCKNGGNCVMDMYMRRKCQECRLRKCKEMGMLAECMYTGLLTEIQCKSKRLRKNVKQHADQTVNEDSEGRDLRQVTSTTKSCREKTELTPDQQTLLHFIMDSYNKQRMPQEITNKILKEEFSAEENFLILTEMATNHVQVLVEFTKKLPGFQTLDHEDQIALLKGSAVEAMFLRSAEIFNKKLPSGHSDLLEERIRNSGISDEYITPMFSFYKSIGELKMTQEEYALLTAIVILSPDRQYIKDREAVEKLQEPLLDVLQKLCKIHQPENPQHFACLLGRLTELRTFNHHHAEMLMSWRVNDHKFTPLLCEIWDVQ
The data set can be described thus: FXR luciferase reporter assay in HepG2 reporter cells. On the procedure:
FXR luciferase reporter cells—FXR luciferase reporter cells—HepG2 cancer cells were used in the screening study. HepG2 cells were stably transfected with either FXR reporter DNA in which 3 repeated response element ([…])(SEQ ID NO:2) was inserted in-PGL4.2 luciferase reporter plasmid or LXR reporter DNA in which 3 repeated response element ([…])(SEQ ID NO:3) was inserted in PGL4.2 luciferase reporter plasmid. Reporter cells were selected by puromycin (1 ug/mL) in RPMI-1640 medium with 10% FBS.
Luciferase assay—Reporter cells were treated with compounds at 0, 10, 20, 40, and […] for 24h in a 37° C.-CO2 incubator with or without chenodeoxycholic acid (CDCA) for FXR reporter cells or GW3965 for LXR reporter cells. Cells were lysed using luciferase lysis buffer after which luciferase buffer with luciferin was added to generate luminescence. Luminescence was recorded using a luminescence microplate reader.
A general note: Reporter assays use an easily measured gene product as a stand-in for the process of interest.

The target of the next data set is T2, ER-α (Homo sapiens, UniProt P03372).
T2 sequence (P03372 1-595): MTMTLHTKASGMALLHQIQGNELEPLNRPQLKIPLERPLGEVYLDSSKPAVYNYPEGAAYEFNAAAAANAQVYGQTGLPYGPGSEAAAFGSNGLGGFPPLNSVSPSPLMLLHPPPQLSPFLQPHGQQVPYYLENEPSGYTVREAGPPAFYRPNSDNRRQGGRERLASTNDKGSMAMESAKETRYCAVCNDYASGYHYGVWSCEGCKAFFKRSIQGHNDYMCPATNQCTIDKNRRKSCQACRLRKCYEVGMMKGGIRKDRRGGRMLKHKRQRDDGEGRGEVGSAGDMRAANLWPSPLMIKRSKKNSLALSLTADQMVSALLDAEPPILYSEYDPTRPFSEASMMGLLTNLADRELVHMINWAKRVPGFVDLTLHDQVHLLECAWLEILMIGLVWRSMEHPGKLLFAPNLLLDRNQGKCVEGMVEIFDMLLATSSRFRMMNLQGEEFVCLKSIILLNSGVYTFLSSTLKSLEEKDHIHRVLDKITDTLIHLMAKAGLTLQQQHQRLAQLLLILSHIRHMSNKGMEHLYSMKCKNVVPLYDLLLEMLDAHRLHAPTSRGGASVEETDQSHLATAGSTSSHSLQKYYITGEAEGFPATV
The data set is described as follows: Hormone receptor signaling pathway selectivity: ER-α mediated transcriptional response. The settings on record: with E2; read-out: ER-α with ligand E2 (inhibition IC50).

The target in the next data set is ER-β (Homo sapiens, UniProt Q92731). The data set can be described thus: Hormone receptor signaling pathway selectivity: ER-β. The settings on record: with E2; read-out: ER-β with ligand E2 (inhibition IC50).
ER-β, sequence (Q92731 whole entry, species assumed): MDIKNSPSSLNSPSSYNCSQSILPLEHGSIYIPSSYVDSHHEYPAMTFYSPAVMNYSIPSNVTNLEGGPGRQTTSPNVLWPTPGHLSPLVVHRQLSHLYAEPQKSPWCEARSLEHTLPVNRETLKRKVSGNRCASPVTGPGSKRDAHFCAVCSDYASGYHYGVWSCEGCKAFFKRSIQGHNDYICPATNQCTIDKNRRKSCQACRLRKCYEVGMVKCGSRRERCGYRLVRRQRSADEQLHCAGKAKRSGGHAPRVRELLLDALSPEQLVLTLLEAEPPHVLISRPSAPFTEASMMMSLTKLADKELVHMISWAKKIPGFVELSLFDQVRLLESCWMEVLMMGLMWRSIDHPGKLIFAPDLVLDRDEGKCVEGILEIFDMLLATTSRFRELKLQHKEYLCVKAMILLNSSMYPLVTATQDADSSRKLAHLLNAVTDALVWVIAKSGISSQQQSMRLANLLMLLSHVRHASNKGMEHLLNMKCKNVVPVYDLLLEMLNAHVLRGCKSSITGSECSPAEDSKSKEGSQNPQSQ
The next data set has as its target T3, VDR (Homo sapiens, UniProt P11473).
T3 sequence (P11473 1-427): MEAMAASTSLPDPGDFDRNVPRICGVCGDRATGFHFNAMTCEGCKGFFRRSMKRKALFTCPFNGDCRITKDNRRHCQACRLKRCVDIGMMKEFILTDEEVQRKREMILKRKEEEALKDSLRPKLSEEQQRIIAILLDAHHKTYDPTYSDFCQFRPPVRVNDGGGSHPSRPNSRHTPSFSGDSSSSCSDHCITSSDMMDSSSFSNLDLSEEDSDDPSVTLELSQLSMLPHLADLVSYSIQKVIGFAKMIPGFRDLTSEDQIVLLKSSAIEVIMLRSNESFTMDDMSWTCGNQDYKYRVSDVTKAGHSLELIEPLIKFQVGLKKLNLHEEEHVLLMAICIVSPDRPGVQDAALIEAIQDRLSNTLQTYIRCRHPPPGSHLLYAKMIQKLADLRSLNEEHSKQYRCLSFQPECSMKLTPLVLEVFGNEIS
The data set can be described thus: Hormone receptor signaling pathway selectivity: VDRE (VDR). To be noted: with VD3; read-out: VDRE with ligand VD3 (inhibition IC50).

The target of another data set is T4, AR (Homo sapiens, UniProt P10275).
T4 sequence (P10275 1-920): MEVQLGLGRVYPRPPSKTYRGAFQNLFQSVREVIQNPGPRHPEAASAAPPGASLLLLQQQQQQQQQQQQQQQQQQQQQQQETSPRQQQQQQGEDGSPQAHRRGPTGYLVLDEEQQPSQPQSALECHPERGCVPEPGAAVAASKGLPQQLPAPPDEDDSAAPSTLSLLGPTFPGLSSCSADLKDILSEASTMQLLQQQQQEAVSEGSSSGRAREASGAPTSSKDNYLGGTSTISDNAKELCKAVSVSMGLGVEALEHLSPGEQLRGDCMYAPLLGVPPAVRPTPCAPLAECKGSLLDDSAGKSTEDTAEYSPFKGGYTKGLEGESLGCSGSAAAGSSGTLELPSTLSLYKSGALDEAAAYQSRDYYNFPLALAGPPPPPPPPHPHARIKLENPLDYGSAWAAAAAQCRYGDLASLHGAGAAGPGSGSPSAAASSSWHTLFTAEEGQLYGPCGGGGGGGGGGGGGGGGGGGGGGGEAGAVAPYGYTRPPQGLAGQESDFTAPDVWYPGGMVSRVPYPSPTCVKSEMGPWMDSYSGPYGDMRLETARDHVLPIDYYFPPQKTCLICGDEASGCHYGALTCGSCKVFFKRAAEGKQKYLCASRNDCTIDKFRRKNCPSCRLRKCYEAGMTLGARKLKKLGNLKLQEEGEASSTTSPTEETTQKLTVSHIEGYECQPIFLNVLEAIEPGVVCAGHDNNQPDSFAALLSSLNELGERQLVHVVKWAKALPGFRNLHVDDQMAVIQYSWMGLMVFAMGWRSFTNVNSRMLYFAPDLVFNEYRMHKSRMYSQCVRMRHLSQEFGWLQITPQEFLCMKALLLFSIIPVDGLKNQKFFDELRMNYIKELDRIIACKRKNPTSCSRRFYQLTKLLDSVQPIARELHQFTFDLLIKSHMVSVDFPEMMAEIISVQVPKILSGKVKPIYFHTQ
The data set is described as follows: Hormone receptor signaling pathway selectivity: AR. The settings on record: with DHT; read-out: AR with ligand DHT (inhibition IC50).

A further data set has as its system CYP7A1. The data set can be described thus: RT-qPCR for FXR target genes in HepG2 cells: CYP7A1. The settings on record: concentration of about 35 μM to 45. The protocol: (§1) Real Time Quantitative PCR (RT-qPCR)—Real Time Quantitative PCR (RT-qPCR) for FXR target genes: RNA was extracted from NZZ compounds treated cells using the Roche High Pure RNA isolation kit. cDNA was then generated from RNA samples using Bio-rad iScript Advanced cDNA synthesis kit for RT-qPCR. qPCR was performed using primers as shown in the Table 1 and iTaq™ Universal SYBR® Green Supermix in CFX PCR machine (Bio-rad). Relative mRNA expression was calculated based on the change of the threshold cycle relative to the internal control, (3-actin, using a standard curve generated by purified PCR products.
(Quantitative PCR measures a nucleic acid by following its amplification.)

For another data set, the system named is PPARa. The data set is described as follows: RT-qPCR for FXR target genes in HepG2 cells: PPARa. To be noted: concentration of about 75 μM to 85. The protocol: as §1
The next data set has as its system BACS. The data set can be described thus: RT-qPCR for FXR target genes in HepG2 cells: BACS. The protocol:
as §1

Data set [1] has as its system other hormone receptor signaling pathways. The data set is described as follows: Selectivity for different hormone receptor signaling pathways (panel).

We go through 1 molecule from US20220409631A1, “METHODS OF INDUCING OR ENHANCING FARNESOID X RECEPTOR (FXR)-MEDIATED TRANSCRIPTIONAL RESPONSE” (YALE UNIVERSITY, priority 2019, published 2022).

Entries after “also recorded” stand apart in the source; their conditions may differ.

For orientation: EC50 means the concentration that produces a half-maximal response. The term IC50 denotes the concentration needed to halve the response being measured. As to `C=C(CC[C@@H](C)[C@H]1CC[C@H]2C3=C(C(=O)[C@H](O)[C@]12C)[C@@]1(C)CC[C@@H](O)[C@@H](C)[C@@H]1CC3=O)[C@@H](C)C(=O)O` [compound (I)], the “induction of FXR activity / FXR mediated transcriptional response” value at FXR (HepG2 FXR-luciferase reporter cells) is “act as agonists; also recorded: induce/enhance FXR activity”. On FXR (no ligand added, read-out: FXR (stimulation EC50)), the EC50 was determined as 25 µM. The IC50 on ER-α, at ER-β, on VDR and at AR was greater than 80 µM throughout. Besides, in the data set on CYP7A1, the “inhibition of CYP7A1, stronger than by compound (II) or by CDCA” value is on record as “about 40%”. Besides, the “PPARa mRNA expression, fold higher than that induced by compound (II)” value with PPARa is recorded as “about 2 fold”. The “BACS mRNA expression, fold lower than the CDCA induced BACS expression” value in the data set with BACS is on record as “about 2 fold”. Also, in data set [1], the “impact on other hormone receptor signaling pathways” value is given as “no impact”.
